Experiments:
Type in all cases: in vivo
rice (Oryza sativa) = experiment: Test B flooded paddy test, plant response rating 0-100; conditions: Flood, 250 g ai/ha; scale 0 to 100 (0 no effect, 100 complete control); 13 to 15 days
Description: (§1) At time of treatment, test pots were flooded to 3 cm above the soil surface, treated by application of test compounds directly to the paddy water, and then maintained at that water depth for the duration of the test. Treated plants and controls were maintained in a greenhouse for 13 to 15 days, after which time all species were compared to controls and visually evaluated. […] A dash (-) response means no test result.

[1] = test system: ducksalad (Heteranthera limosa); experiment: as above; conditions: Flood, 250 g ai/ha; scale 0 to 100 (0 no effect, 100 complete control); 13 to 15 days
Description: as §1

[2] = test system: barnyardgrass (Echinochloa crus-galli); experiment: as above; conditions: Flood, 250 g ai/ha; scale 0 to 100 (0 no effect, 100 complete control); 13 to 15 days
Description: as §1

[3] = test system: sedge, umbrella (small-flower umbrella sedge, Cyperus difformis); experiment: as above; conditions: Flood, 250 g ai/ha; scale 0 to 100 (0 no effect, 100 complete control); 13 to 15 days
Description: as §1

[4] = test system: wheat (Triticum aestivum); experiment: Test A pre-/postemergence greenhouse herbicide test, visual injury rating 0-100
Outline: (§2)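 Visual injury versus untreated controls, scored about 10 days after treatment on a 0 to 100 scale (0 = no effect, 100 = complete control). Applications were preemergence directed soil spray plus postemergence spray at one- to two-leaf stage, 2 to 10 cm plants.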

[5] = test system: pigweed (Amaranthus retroflexus); experiment: as above
Outline: as §2

corn (Zea mays) = experiment: as above
Outline: as §2

[6] = test system: morningglory (Ipomoea spp.); experiment: as above
Outline: as §2

[7] = test system: large (Lg) crabgrass (Digitaria sanguinalis); experiment: as above
Outline: as §2

[8] = test system: giant foxtail (Setaria faberii); experiment: as above
Outline: as §2

[9] = test system: velvetleaf (Abutilon theophrasti); experiment: as above
Outline: as §2

[10] = test system: barnyardgrass (Echinochloa crus-galli); experiment: as above
Outline: as §2

ON=C(c1cccnc1)c1c[nH]nc1-c1cc(Cl)cc(Cl)c1 [Compound 5]
0: Plant response rating, Rice (rice (Oryza sativa)) | Plant response rating, Ducksalad [1] | Plant response rating, Barnyardgrass [2] | Plant response rating, Sedge, Umbrella [3] | Plant response rating (0 to 100 scale), Wheat ([4]; Postemergence, 125 g ai/ha) | Plant response rating (0 to 100 scale), Wheat ([4]; Postemergence, 500 g ai/ha) | Wheat plant response rating (0 = no effect, 100 = complete control) ([4]; Preemergence, 125 g ai/ha) | Plant response rating (0 to 100 scale), Wheat ([4]; Preemergence, 500 g ai/ha) | Plant response rating (0 to 100 scale), Pigweed ([5]; Postemergence, 125 g ai/ha) | Plant response rating (0 to 100 scale), Pigweed ([5]; Postemergence, 500 g ai/ha) | Pigweed plant response rating (0 = no effect, 100 = complete control) ([5]; Preemergence, 125 g ai/ha) | Corn plant response rating (0 = no effect, 100 = complete control) (corn (Zea mays); Preemergence, 125 g ai/ha) | Plant response rating (0 to 100 scale), Corn (corn (Zea mays); Preemergence, 500 g ai/ha) | Plant response rating (0 to 100 scale), Morningglory ([6]; Postemergence, 125 g ai/ha) | Plant response rating (0 to 100 scale), Morningglory ([6]; Postemergence, 500 g ai/ha) | Morningglory plant response rating (0 = no effect, 100 = complete control) ([6]; Preemergence, 125 g ai/ha) | Plant response rating (0 to 100 scale), Morningglory ([6]; Preemergence, 500 g ai/ha) | Plant response rating (0 to 100 scale), Crabgrass, Large ([7]; Postemergence, 125 g ai/ha) | Plant response rating (0 to 100 scale), Crabgrass, Large ([7]; Postemergence, 500 g ai/ha) | Crabgrass, Large plant response rating (0 = no effect, 100 = complete control) ([7]; Preemergence, 125 g ai/ha) | Plant response rating (0 to 100 scale), Crabgrass, Large ([7]; Preemergence, 500 g ai/ha) | Plant response rating (0 to 100 scale), Foxtail, Giant ([8]; Postemergence, 125 g ai/ha) | Plant response rating (0 to 100 scale), Foxtail, Giant ([8]; Postemergence, 500 g ai/ha) | Foxtail, Giant plant response rating (0 = no effect, 100 = complete control) ([8]; Preemergence, 125 g ai/ha) | Plant response rating (0 to 100 scale), Foxtail, Giant ([8]; Preemergence, 500 g ai/ha) | Plant response rating (0 to 100 scale), Velvetleaf ([9]; Postemergence, 125 g ai/ha) | Plant response rating (0 to 100 scale), Velvetleaf ([9]; Postemergence, 500 g ai/ha) | Velvetleaf plant response rating (0 = no effect, 100 = complete control) ([9]; Preemergence, 125 g ai/ha) | Plant response rating (0 to 100 scale), Velvetleaf ([9]; Preemergence, 500 g ai/ha) | Plant response rating (0 to 100 scale), Barnyardgrass ([10]; Postemergence, 125 g ai/ha) | Plant response rating (0 to 100 scale), Barnyardgrass ([10]; Postemergence, 500 g ai/ha) | Barnyardgrass plant response rating (0 = no effect, 100 = complete control) ([10]; Preemergence, 125 g ai/ha) | Plant response rating (0 to 100 scale), Barnyardgrass ([10]; Preemergence, 500 g ai/ha)
20: Plant response rating (0 to 100 scale), Pigweed ([5]; Preemergence, 500 g ai/ha)

Cn1cc(C(=O)c2cccnc2)c(-c2cc(Cl)cc(Cl)c2)n1 [Compound 6]
0: Plant response rating, Rice (rice (Oryza sativa)) | Plant response rating, Ducksalad [1] | Plant response rating, Barnyardgrass [2] | Plant response rating, Sedge, Umbrella [3] | Plant response rating (0 to 100 scale), Wheat ([4]; Postemergence, 125 g ai/ha) | Plant response rating (0 to 100 scale), Wheat ([4]; Postemergence, 500 g ai/ha) | Wheat plant response rating (0 = no effect, 100 = complete control) ([4]; Preemergence, 125 g ai/ha) | Plant response rating (0 to 100 scale), Wheat ([4]; Preemergence, 500 g ai/ha) | Plant response rating (0 to 100 scale), Pigweed ([5]; Postemergence, 125 g ai/ha) | Pigweed plant response rating (0 = no effect, 100 = complete control) ([5]; Preemergence, 125 g ai/ha) | Plant response rating (0 to 100 scale), Corn (corn (Zea mays); Postemergence, 125 g ai/ha) | Plant response rating (0 to 100 scale), Corn (corn (Zea mays); Postemergence, 500 g ai/ha) | Corn plant response rating (0 = no effect, 100 = complete control) (corn (Zea mays); Preemergence, 125 g ai/ha) | Plant response rating (0 to 100 scale), Corn (corn (Zea mays); Preemergence, 500 g ai/ha) | Plant response rating (0 to 100 scale), Morningglory ([6]; Postemergence, 125 g ai/ha) | Plant response rating (0 to 100 scale), Morningglory ([6]; Postemergence, 500 g ai/ha) | Morningglory plant response rating (0 = no effect, 100 = complete control) ([6]; Preemergence, 125 g ai/ha) | Plant response rating (0 to 100 scale), Morningglory ([6]; Preemergence, 500 g ai/ha) | Plant response rating (0 to 100 scale), Crabgrass, Large ([7]; Postemergence, 125 g ai/ha) | Plant response rating (0 to 100 scale), Crabgrass, Large ([7]; Postemergence, 500 g ai/ha) | Crabgrass, Large plant response rating (0 = no effect, 100 = complete control) ([7]; Preemergence, 125 g ai/ha) | Plant response rating (0 to 100 scale), Crabgrass, Large ([7]; Preemergence, 500 g ai/ha) | Plant response rating (0 to 100 scale), Foxtail, Giant ([8]; Postemergence, 125 g ai/ha) | Plant response rating (0 to 100 scale), Foxtail, Giant ([8]; Postemergence, 500 g ai/ha) | Foxtail, Giant plant response rating (0 = no effect, 100 = complete control) ([8]; Preemergence, 125 g ai/ha) | Plant response rating (0 to 100 scale), Foxtail, Giant ([8]; Preemergence, 500 g ai/ha) | Velvetleaf plant response rating (0 = no effect, 100 = complete control) ([9]; Preemergence, 125 g ai/ha) | Plant response rating (0 to 100 scale), Barnyardgrass ([10]; Postemergence, 125 g ai/ha) | Plant response rating (0 to 100 scale), Barnyardgrass ([10]; Postemergence, 500 g ai/ha) | Barnyardgrass plant response rating (0 = no effect, 100 = complete control) ([10]; Preemergence, 125 g ai/ha) | Plant response rating (0 to 100 scale), Barnyardgrass ([10]; Preemergence, 500 g ai/ha)
20: Plant response rating (0 to 100 scale), Pigweed ([5]; Preemergence, 500 g ai/ha) | Plant response rating (0 to 100 scale), Velvetleaf ([9]; Preemergence, 500 g ai/ha)
30: Plant response rating (0 to 100 scale), Pigweed ([5]; Postemergence, 500 g ai/ha)
10: Plant response rating (0 to 100 scale), Velvetleaf ([9]; Postemergence, 125 g ai/ha) | Plant response rating (0 to 100 scale), Velvetleaf ([9]; Postemergence, 500 g ai/ha)
